This is an account of results in patent publication US20170182026A1, “Anti-Metastasis Treatment of Melanoma” (University Hospitals Cleveland Medical Center, priority 2015, published 2017).

One experiment relates to connexins. The experiment in a line: Connexin protein levels after autophagy blockade. The class given is cell-based. The following applies: A375.52 cells, treatment over 24 hours, FIG. 4B. As for the experimental part:
FIGS. 4A&B presents exemplary data showing an assessment of connexin inhibition on autophagic flux and autophagic blockade on connexin protein levels. […] Tubulin as a loading control. H2O=water control, CBX=Carbenoxolone, Hep=1-Eleptanol, Oct=1-octanol, D=DMSO, HCQ=Hydroxychloroquine. Connexin protein levels were also assessed for possible modification of autophagic flux. For this purpose, hydroxychloroquine, a known autophagy inhibitor and clinically available medication was used. […] Specific autophagy inhibition may be assessed using shRNA (infra).

The test system of the next experiment is A375.52 cells. The experiment in a line: Scratch assay, cell migration. The following applies: over 24 hours, FIG. 5C. The experiment is classed as cell-based. As to the method: (§1) FIG. 5A-C presents exemplary data showing combinatory effects of hydroxychloroquine (HCQ) and 1-octanol on melanoma cell viability and death. […] 4-methyl-heptanol (1 mM) as negative control.
(§2) The effect of a combined inhibition of GJIC and autophagy was assessed, making use of Promega Cell-Titer Glo and Trypan blue exclusion assay to assess cell viability and cell death, respectively (FIG. 5A and FIG. 5B). […] (FIG. 5C) Cell migration was measured as distance traveled from the edge of a wound and not as percent wound closure.

Experiment [1] concerns autophagic flux. As to the kind of experiment: Western blot of LC3 II/I ratio and p62 levels after connexin (GJIC) inhibitors. The class given is cell-based. The following applies: A375.52 melanoma cells, treatment over 24 hours, FIG. 4A. The source says: FIGS. 4A&B presents exemplary data showing an assessment of connexin inhibition on autophagic flux and autophagic blockade on connexin protein levels. […] Tubulin as a loading control. H2O=water control, CBX=Carbenoxolone, Hep=1-Eleptanol, Oct=1-octanol, D=DMSO, HCQ=Hydroxychloroquine.
Connexin protein levels were examined within various melanoma cell lines, see FIG. 3. […] Connexins 43 and 26 has been studied previously in melanoma, and both also have shown relationships with autophagy. […] GJIC inhibition was explored, using three known connexin inhibitors, 1-octanol, 1-heptanol and carbenoxolone, the former of which is clinically available and is labeled as a food additive by the Food and Drug Administration, which is known to affect autophagic flux. GJIC inhibition was measured by changes noted in LC3 II/I ratios and p62 levels. (FIG. 4A).
(In general: Immunoblotting shows a protein as a band on a membrane.)

The next experiment has as its system melanoma cell lines. The experiment in a line: Promega Cell-Titer Glo cell viability. The experiment is classed as cell-based. The following applies: two melanoma cell lines, 72 hours, FIG. 5A. As to the method:
as §1, §2

A further experiment deals with A375.52. The experiment in a line: Trypan blue exclusion assay, cell death. The experiment is classed as cell-based. The following applies: A375.52, 72 hours, FIG. 5B. As to the method:
as §1, §2

The test system of experiment [2] is gap junction intercellular communication. As to the kind of experiment: Microinjection imaging assay, spread of reporter dye. The following applies: time-lapse microscopy, FIGS. 7A&B. The experiment is classed as cell-based. The source says: FIGS. 7A&B presents exemplary data Showing cell-cell communication in Glioblastoma Stem Cells (GSCs) cells with live imaging.
The functional status of overall connexin activity after autophagy inhibition will be addressed. […] To measure this, a microinjection imaging assay will be used. One cell is co-injected with a large fluorescent IgG that is unable to leave the parental cell along with a reporter dye that is capable of spreading to adjacent cells. Combining this with time-lapse microscopy, spread of the reporter dye (Lucifer yellow, 2NBDG-a fluorescent glucose analog) can be monitored, see FIGS. 7A&B. The spread of the dye is attenuated when using gap junction inhibitors, including carbenoxolone and 1-octanol. Utilization of multiple assessments of the gap junction intercellular communication, i.e. mRNA expression, protein levels and functional activity levels may pinpoint the particular modulation of GJIC that occurs with autophagic blockade in melanoma cells. […] Additionally, shRNA against shATG5, another key autophagy protein, could be utilized to determine if there were different effects.

Experiment [3] has as its system autophagic flux. The following applies: pharmacologic blockage of GJIC, reference [21]; cited from earlier work.
The subject of a further experiment is Cx 36 and 50. The following applies: reference [49]; cited from earlier work.
Another experiment concerns connexins 26, 32, and 43. The following applies: reference [49]; cited from earlier work.

Entries after “also recorded” stand apart in the source; their conditions may differ.

Turning to `CCN(CCO)CCCC(C)Nc1ccnc2cc(Cl)ccc12` (racemic) [hydroxychloroquine, (RS)-2-{{4-{(7-chloroquinolin-4-yl)amino}pentyl}(ethyl)amino}ethanol], in the experiment with connexins, the “levels of connexins 43 and 46” value is “opposite effects on levels of connexins 43 and 46”; the “protein levels of connexins” value was “affects the protein levels of specific connexins; also recorded: does affect protein levels of connexins, but not consistently”. Also, the “cell migration (distance traveled from the edge of a wound)” value in the experiment on A375.52 cells is listed as “no effect”.
`CCCCCCCCO` [1-octanol]: in the experiment on autophagic flux [1], the p62 levels entry is reported as “increased p62 levels” and the “total LC3 levels” value is recorded as “changes in total LC3 levels”. The cell viability entry with melanoma cell lines is on record as “only small effects”. Further, the cell death entry in the experiment with A375.52 is listed as “only small effects”. Also, the “cell migration (distance traveled from the edge of a wound)” value with A375.52 cells was “no effect”. Also, the “spread of the reporter dye (Lucifer yellow, 2NBDG)” value in experiment [2] was “attenuated”.
With `CC1(C)[C@@H](O)CC[C@]2(C)[C@H]3C(=O)C=C4[C@H]5C[C@@](C)(C(=O)O)CC[C@]5(C)CC[C@@]4(C)[C@]3(C)CC[C@@H]12` [18α glycyrrhetinic acid], the autophagic flux result with autophagic flux [3] was “decreased autophagic flux”.
Regarding `CC1(C)[C@@H](OC(=O)CCC(=O)O)CC[C@]2(C)[C@H]3C(=O)C=C4[C@@H]5C[C@@](C)(C(=O)O)CC[C@]5(C)CC[C@@]4(C)[C@]3(C)CC[C@@H]12` [carbenoxolone], in the experiment on autophagic flux [1], the “LC3 II/I ratio” value was “without clear changes in LC3 II/I ratio” and the p62 levels entry is reported as “decreased p62 levels somewhat”. Further, the “spread of the reporter dye (Lucifer yellow, 2NBDG)” value in [2] is reported as “attenuated”.
On to `OC(c1cc(C(F)(F)F)nc2c(C(F)(F)F)cccc12)C1CCCCN1` (stereo not drawn) [mefloquine], for which the “block of connexin activity” value in the experiment on Cx 36 and 50 is “block activity”; in the experiment with connexins 26, 32, and 43 it was “would require much higher doses to affect”.
